The values that follow come from US20230286968A1, “ARYLOXAZOLO SPIRAL RING DERIVATIVES FOR THE TREATMENT AND PROPHYLAXIS OF HEPATITIS B VIRUS INFECTION” (Hoffmann-La Roche Inc., priority 2020, published 2023).

Like-named read-outs stand apart in the source and are kept apart here. Some results are limits rather than exact numbers.

Data set [1] relates to HBeAg. The data set is described as follows: PHH natural infection assay, HBeAg (alphalisa). It is filed as cell-based, HBV. How it is done: (§1) Detailed procedures regarding primary human hepatocyte (PHH) HBV natural infection assay are described as below. One tube of frozen PHH (10 million cells) is thawed in 37° C. water bath and then transferred to 20 mL of PHH thawing medium (Sigma, InVitroGRO HT Medium, Cat. S03319) with gently mixing. The cells were then centrifuged at […] for 5 min, the supernatant was discarded and the tube was refilled with 25 mL of PHH plating medium (Sigma, InVitroGRO CP Medium, Cat. S03317). The tube was shaken very gently to re-suspend all cells, and then 50 μL of cells were transferred to each well 384-well collagen I coated plate with appropriate liquid handling equipment, e.g. Integra VIAFLO384 or Agilent Bravo. The cells were then cultured for 24 hours in a cell incubator. For HBV infection, after PHH attachment on the culture plate, the plating medium was removed and replenished with PHH culture medium containing HBV virus. The PHH culture medium was prepared with Dulbecco's Modified Eagle Medium (DMEM)/F12 (1:1 in volume ratio) containing 10% fetal bovine serum (Gibco, Cat. 10099141), 5 ng/mL human epidermal growth factor (Gibco, Cat.PHG0311L), 20 ng/mL dexamethasone (Sigma, Cat.D4902-100 mg), 250 ng/mL human recombinant insulin (Gibco, Cat.41400045) and 100 U/mL penicillin. HBV virus at 200 genome equivalent (GE) per cell with 4% PEG8000 (Sigma, Cat.P1458) containing culture medium were added to the PHH culture medium for infection. The cells were then cultured for 24 hours in cell incubator. Then the cell culture supernatant was removed. The HBV-infected PHH were cultured with sandwich culture method with PHH culture medium containing […] and 0.25 mg/mL matrix gel for 72 hours. The supernatant was then refreshed with PHH culture medium containing different concentrations of testing compounds for two times with 72-hour interval. At the end of treatment, the supernatant was collected for viral markers measurements, including HBsAg, HBeAg, HBV DNA and cytotoxicity. HBsAg and HBeAg were detected using alphalisa method using their specific antibodies. For HBV DNA detection, HBV DNA Quantitative Fluorescence Diagnostic Kit (Sansure Biotech Inc.) was used following the manufacture's protocol. Cytotoxicity was determined using Cell Counting Kit-8 (CCK8, Dojindo Molecular Technologies, Inc.).
(§2) The compounds of the present invention were tested for their capacity to inhibit HBsAg and HBeAg as described herein.

Data set [2] is described as follows: Cytotoxicity in PHH natural infection assay (Cell Counting Kit-8). It is filed as cell-based. Conditions: HBV-infected primary human hepatocytes, CCK8. How it is done: as §1
On the technique in general: Tetrazolium assays rely on reduction of a dye to a coloured formazan, in cell work by metabolically active cells.

The subject of data set [3] is HBsAg. The data set is described as follows: PHH natural infection assay, HBsAg (alphalisa). It is filed as cell-based, HBV. How it is done: as §1, §2
For orientation: Bead proximity is the source of the signal in Alpha formats.

Setting [4] is: read-out: HBeAg IC50, HBV-infected primary human hepatocytes, supernatant, alphalisa.
Setting [5] is: read-out: HBsAg IC50, HBV-infected primary human hepatocytes, supernatant, alphalisa.
[6] abbreviates: Hepatitis B virus, Hepatocyte, read-out: HBeAg IC50, HBV-infected primary human hepatocytes, supernatant, alphalisa.
Where [7] appears, read: Hepatitis B virus, Hepatocyte, read-out: HBsAg IC50, HBV-infected primary human hepatocytes, supernatant, alphalisa.

With `[H][C@]1(NC(=O)C2CCS(=O)(=O)CC2)C[C@]2(C1)C[C@]([H])(c1nc3cc(Cl)ccc3o1)C2` (single isomer, unassigned) [Example 82a, (Ra)—N-[6-(5-chloro-1,3-benzoxazol-2-yl)spiro[3.3]heptan-2-yl]-1,1-dioxo-thiane-4-carboxamide], the IC50 in data set [1] (setting [4]) is 5.13 µM; in data set [3] (setting [5]), 6.57 µM. Further, the CC50 at 144 h in data set [2] is greater than 100 µM.

For `[H][C@]1(NC(=O)C2CCS(=O)(=O)CC2)C[C@@]2(C1)C[C@]([H])(c1nc3cc(Cl)ccc3o1)C2` (single isomer, unassigned) [Example 82b, (Sa)—N-[6-(5-chloro-1,3-benzoxazol-2-yl)spiro[3.3]heptan-2-yl]-1,1-dioxo-thiane-4-carboxamide], the IC50 in data set [1] (setting [4]) came to 1.47 µM; in data set [3] (setting [5]), 2.04 µM. Besides, in data set [2], the CC50 at 144 h is greater than 100 µM.

As to `[H][C@]1(NC(=O)c2ccnc(S(=O)(=O)C3CC3)c2)C[C@]2(C1)C[C@]([H])(c1nc3cc(Cl)ccc3o1)C2` (single isomer, unassigned) [Example 84a, (Ra)—N-[6-(5-chloro-1,3-benzoxazol-2-yl)spiro[3.3]heptan-2-yl]-2-cyclopropylsulfonyl-pyridine-4-carboxamide], the IC50 came to 0.13 µM in data set [1] (setting [4]) and 0.07 µM in data set [3] (setting [5]). The CC50 at 144 h in data set [2] turned out to be 84.3 µM.

In the case of `[H][C@]1(NC(=O)c2ccnc(S(=O)(=O)C3CC3)c2)C[C@@]2(C1)C[C@]([H])(c1nc3cc(Cl)ccc3o1)C2` (single isomer, unassigned) [Example 84b, (Sa)—N-[6-(5-chloro-1,3-benzoxazol-2-yl)spiro[3.3]heptan-2-yl]-2-cyclopropylsulfonyl-pyridine-4-carboxamide], the IC50 amounted to 1.61 µM in data set [1] (setting [4]) and 1.9 µM in data set [3] (setting [5]). In data set [2], this compound registered a CC50 at 144 h greater than 10 µM.

As for `[H][C@]1(NC(=O)c2ccnc(S(C)(=O)=O)c2)C[C@]2(C1)C[C@]([H])(c1nc3cc(Cl)ccc3o1)C2` (single isomer, unassigned) [Example 87-a, (Ra)—N-[6-(5-chloro-1,3-benzoxazol-2-yl)spiro[3.3]heptan-2-yl]-2-methylsulfonyl-pyridine-4-carboxamide], the IC50 was 0.22 µM in data set [1] (setting [4]) and 0.2 µM in data set [3] (setting [5]). Also, the CC50 at 144 h in data set [2] is greater than 10 µM.

Take `[H][C@]1(NC(=O)c2ccnc(S(C)(=O)=O)c2)C[C@@]2(C1)C[C@]([H])(c1nc3cc(Cl)ccc3o1)C2` (single isomer, unassigned) [Example 87-b, (Sa)—N-[6-(5-chloro-1,3-benzoxazol-2-yl)spiro[3.3]heptan-2-yl]-2-methylsulfonyl-pyridine-4-carboxamide]: the figures for the IC50 in data set [1] (setting [4]) and in data set [3] (setting [5]) were 3.29 µM and 3.68 µM, respectively. Besides, in data set [2], the CC50 at 144 h was greater than 10 µM.

In the case of `[H][C@@]1(C(=O)N[C@]2([H])C[C@@]3(C2)C[C@@]([H])(c2nc4cc(Cl)ccc4o2)C3)CC(=O)N(C)C1` (single isomer, unassigned) [Example 94c], the IC50 was 0.61 µM in data set [1] (setting [6]) and 1.24 µM in data set [3] (setting [7]). In addition, the CC50 at 144 h in data set [2] was greater than 100 µM.

As for `[H][C@]1(C(=O)N[C@]2([H])C[C@@]3(C2)C[C@@]([H])(c2nc4cc(Cl)ccc4o2)C3)CC(=O)N(C)C1` (single isomer, unassigned) [Example 94d], the IC50 is 1.46 µM in data set [1] (setting [6]) and 2.57 µM in data set [3] (setting [7]). This compound also had a CC50 at 144 h in data set [2] greater than 100 µM.

`O=C(NC1CC2(C1)CC(c1nc3cc(Cl)ccc3o1)C2)c1ccccn1` (stereo not drawn) [Example 1, N-[6-(5-chloro-1,3-benzoxazol-2-yl)spiro[3.3]heptan-2-yl]pyridine-2-carboxamide]: the IC50 in data set [1] (setting [6]) is 7.89 µM; in data set [3] (setting [7]), 9.75 µM. This compound also registered a CC50 at 144 h in data set [2] of 74.8 µM.

With `O=C(NC1CC2(C1)CC(c1nc3cc(Cl)ccc3o1)C2)c1cccnc1` (stereo not drawn) [Example 2, N-[6-(5-chloro-1,3-benzoxazol-2-yl)spiro[3.3]heptan-2-yl]pyridine-3-carboxamide], the values for the IC50 in data set [1] (setting [6]) and in data set [3] (setting [7]) were 5.25 µM and 6.2 µM, respectively. Besides, the CC50 at 144 h in data set [2] came out at 68.3 µM.

By IC50 is commonly meant the concentration at which inhibition is half-maximal. As usually defined, the CC50 is the concentration at which the toxic effect on the cells reaches its halfway point. Read a high CC50 as better tolerance by the cells.
